According to ChEMBL document CHEMBL1201862, “PubChem BioAssay data set” (2004):
Active and inactive are the calls of the source.

Tests used:
[1] = target: Hexokinase-1 (Homo sapiens, UniProt P19367); assay: hexokinase 1 activity inhibitors, potency – biochemical, set 2, resazurin fluorescence coupled readout, selectivity assay for HKDC1 inhibitor project, SAR follow-up (AID 588356); format: functional
[2] = target: T1, Hexokinase HKDC1 (Homo sapiens, UniProt Q2TB90); assay: analog inhibition of human HKDC1 activity – biochemical, set 2, SAR follow-up (AID 588355); format: functional
T1 sequence (Q2TB90 whole entry): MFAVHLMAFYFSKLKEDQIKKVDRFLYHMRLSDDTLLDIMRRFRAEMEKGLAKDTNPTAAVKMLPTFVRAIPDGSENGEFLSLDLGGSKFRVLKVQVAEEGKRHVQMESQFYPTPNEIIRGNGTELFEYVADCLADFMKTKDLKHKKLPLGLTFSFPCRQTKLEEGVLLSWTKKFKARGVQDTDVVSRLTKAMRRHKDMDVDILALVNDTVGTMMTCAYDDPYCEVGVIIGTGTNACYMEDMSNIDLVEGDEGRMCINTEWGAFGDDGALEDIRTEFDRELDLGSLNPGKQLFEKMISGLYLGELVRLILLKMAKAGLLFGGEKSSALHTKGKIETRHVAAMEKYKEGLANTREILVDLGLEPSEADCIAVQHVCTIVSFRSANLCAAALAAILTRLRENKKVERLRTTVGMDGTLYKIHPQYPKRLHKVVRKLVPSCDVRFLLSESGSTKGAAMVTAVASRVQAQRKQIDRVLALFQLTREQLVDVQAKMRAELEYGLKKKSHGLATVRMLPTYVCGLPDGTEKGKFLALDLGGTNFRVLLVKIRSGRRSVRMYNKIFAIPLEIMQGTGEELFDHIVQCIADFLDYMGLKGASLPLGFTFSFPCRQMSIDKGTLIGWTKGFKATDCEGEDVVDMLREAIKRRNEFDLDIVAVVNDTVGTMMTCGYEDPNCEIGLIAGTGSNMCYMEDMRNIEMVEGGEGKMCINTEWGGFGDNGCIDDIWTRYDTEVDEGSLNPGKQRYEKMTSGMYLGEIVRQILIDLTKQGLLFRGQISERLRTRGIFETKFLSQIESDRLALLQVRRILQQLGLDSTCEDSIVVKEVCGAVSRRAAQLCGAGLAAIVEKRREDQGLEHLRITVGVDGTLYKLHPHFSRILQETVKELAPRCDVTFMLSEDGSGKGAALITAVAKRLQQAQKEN

[3] = target: NS3 (Hepatitis C virus, UniProt A3EZJ3); assay: PubChem AID 2173; set-up: species or system Hepacivirus hominis
NS3, sequence (A3EZJ3 whole entry): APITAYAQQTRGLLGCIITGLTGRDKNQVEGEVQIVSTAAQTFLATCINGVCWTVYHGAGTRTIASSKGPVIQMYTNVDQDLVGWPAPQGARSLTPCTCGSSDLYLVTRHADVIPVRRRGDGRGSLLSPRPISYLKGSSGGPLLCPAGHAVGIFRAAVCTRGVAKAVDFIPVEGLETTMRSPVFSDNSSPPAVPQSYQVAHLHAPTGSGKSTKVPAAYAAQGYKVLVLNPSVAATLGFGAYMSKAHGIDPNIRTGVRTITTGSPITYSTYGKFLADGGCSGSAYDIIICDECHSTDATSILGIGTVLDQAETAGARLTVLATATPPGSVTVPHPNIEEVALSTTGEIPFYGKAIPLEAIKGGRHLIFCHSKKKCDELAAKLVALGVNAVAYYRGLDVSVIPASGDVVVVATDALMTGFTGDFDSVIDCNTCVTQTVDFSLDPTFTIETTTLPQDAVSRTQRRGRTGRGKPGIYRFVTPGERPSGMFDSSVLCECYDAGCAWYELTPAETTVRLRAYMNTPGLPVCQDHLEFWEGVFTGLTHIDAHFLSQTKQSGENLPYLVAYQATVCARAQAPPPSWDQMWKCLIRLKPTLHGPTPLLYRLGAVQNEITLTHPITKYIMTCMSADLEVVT

[4] = Late-stage probe development counterscreen for inhibitors of the Hepatitis C Virus non-structural protein 3 helicase (NS3): luminescence-based cell-based dose response assay to determine whether compounds that inhibit replication of HCV RNA replicon are cytotoxic. [Related pubchem assays (depositor defined):AID1800, AID1830, AID1845, AID1943, AID1945, AID2172, AID2173, AID2474, AID2476]; format: functional
[5] = test system: HeLa; assay: ATP-based viability loss in HeLa cells – cell-based, CellTiter-Glo luminescence, cherry-pick samples, cytotoxicity control for MITF activator project, dose response (AID 540259); format: functional; settings: Homo sapiens
[6] = target: T2, Rac GTPase-activating protein 1 (Homo sapiens, UniProt Q9H0H5); assay: blockers of MgcRacGAP-driven Rac1 GTP hydrolysis – biochemical, ADP Hunter fluorescence, primary and confirmatory, confirmation (AID 624330); format: functional
T2 sequence (Q9H0H5 whole entry): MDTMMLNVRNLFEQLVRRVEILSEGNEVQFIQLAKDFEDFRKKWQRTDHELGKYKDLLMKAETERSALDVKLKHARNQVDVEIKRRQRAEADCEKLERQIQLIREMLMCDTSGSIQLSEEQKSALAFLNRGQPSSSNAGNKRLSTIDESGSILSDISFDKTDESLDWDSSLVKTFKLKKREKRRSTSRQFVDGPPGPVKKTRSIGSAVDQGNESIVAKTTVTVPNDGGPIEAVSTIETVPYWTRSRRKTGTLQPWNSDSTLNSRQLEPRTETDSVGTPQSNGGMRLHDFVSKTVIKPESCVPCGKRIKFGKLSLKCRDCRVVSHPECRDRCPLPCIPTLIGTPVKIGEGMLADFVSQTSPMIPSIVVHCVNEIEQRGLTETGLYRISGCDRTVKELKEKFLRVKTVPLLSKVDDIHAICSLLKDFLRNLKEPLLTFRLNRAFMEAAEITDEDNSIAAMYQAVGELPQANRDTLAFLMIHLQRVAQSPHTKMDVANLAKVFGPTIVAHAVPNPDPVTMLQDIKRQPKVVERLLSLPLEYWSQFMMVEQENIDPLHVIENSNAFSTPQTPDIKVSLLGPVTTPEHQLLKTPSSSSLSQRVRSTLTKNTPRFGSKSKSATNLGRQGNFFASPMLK

[7] = test system: Jurkat; assay: blockers of NF-kB activation in T cells – Jurkat, luciferase reporter, luminescence, B- and T-cell, dose response (AID 489004); format: functional, cell-based; settings: Homo sapiens;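 further: NF-kB luciferase reporter Jurkat cells stimulated with PMA plus ionomycin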
[8] = HEK-293T viability loss, compound-treated – cell-based, uHTS hits, cytotoxicity control for B/T-cell NF-kB inhibitor project, dose response (AID 489019); format: functional;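 further: IC50 reflects cytotoxicity as loss of cell viability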
[9] = test system: INS1; assay: INS-1E survival protection against cytokine death – cell-based, luminescence, retest, dose response (AID 449756); format: functional; settings: Rattus norvegicus;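 further: cell death triggered by IL-1 beta plus TNF-alpha plus IFN-gamma mixture; protective hits raise ATP signal compared with cytokine alone wells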
[10] = reduction of Shn3 3'UTR-driven luciferase in osteoblasts – cell-based, Clone20 osteoblasts, firefly luciferase, cherry-picked, dose response (AID 624132); format: functional;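 further: firefly luciferase luminescence from reporter carrying the Shn3 3'UTR in osteoblasts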
[11] = non-specific 3'UTR reporter inhibition in Clone20-Shn3RL – cell-based, Renilla luciferase, cherry-picked, counter-screen for Shn3 inhibitor project, dose response (AID 624133); format: functional
[12] = target: Galanin receptor type 3 (Homo sapiens, UniProt O60755); assay: Fluorescence-based cell-based primary high throughput dose response assay to identify antagonists of the Galanin Receptor 3 (GalR3).; format: functional
Galanin receptor type 3, sequence (O60755 whole entry): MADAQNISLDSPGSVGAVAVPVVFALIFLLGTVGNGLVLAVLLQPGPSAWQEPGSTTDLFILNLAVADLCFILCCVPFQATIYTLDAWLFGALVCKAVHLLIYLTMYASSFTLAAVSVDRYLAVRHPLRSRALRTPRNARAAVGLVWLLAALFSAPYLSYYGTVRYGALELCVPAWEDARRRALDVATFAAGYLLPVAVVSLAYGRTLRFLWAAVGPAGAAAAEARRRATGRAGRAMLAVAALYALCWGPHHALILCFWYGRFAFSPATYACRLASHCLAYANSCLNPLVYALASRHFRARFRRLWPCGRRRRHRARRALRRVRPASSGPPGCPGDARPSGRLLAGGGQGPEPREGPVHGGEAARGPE

[13] = cells; format: functional, cell-based; settings: HEK-CNG
[14] = target: T3, COUP transcription factor 2 (Homo sapiens, UniProt P24468); assay: Luminescence-based cell-based high throughput dose response assay to identify inhibitors of COUP-TFII (NR2F2).; format: functional;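 further: HEK293 cells transiently cotransfected with COUP-TFII expression vector and reporter; luciferase reporter luminescence driven by COUP-TFII from the pX2-168 reporter plasmid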
T3 sequence (P24468 whole entry): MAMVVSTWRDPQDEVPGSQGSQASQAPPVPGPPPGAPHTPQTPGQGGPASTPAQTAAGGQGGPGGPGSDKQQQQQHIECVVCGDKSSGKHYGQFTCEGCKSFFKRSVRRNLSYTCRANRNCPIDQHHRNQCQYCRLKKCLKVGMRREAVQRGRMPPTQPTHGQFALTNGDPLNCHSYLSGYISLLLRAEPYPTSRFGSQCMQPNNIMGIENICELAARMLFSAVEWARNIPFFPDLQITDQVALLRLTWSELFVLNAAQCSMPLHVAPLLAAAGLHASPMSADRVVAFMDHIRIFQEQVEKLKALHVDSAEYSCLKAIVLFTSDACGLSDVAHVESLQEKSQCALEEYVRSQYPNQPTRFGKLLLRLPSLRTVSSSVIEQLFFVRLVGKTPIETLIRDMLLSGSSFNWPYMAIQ

[15] = target: Delta-type opioid receptor (Homo sapiens, UniProt P41143); assay: Counterscreen for agonists of heterodimerization of the mu 1 (OPRM1) and delta 1 (OPRD1) opioid receptors: Luminescence-based cell-based high throughput dose response assay to identify agonists of OPRD1 homodimerization. [Related pubchem assays (depositor defined):AID504326, AID504355, AID504692, AID504904, AID504905]; format: functional
Delta-type opioid receptor, sequence (P41143 whole entry): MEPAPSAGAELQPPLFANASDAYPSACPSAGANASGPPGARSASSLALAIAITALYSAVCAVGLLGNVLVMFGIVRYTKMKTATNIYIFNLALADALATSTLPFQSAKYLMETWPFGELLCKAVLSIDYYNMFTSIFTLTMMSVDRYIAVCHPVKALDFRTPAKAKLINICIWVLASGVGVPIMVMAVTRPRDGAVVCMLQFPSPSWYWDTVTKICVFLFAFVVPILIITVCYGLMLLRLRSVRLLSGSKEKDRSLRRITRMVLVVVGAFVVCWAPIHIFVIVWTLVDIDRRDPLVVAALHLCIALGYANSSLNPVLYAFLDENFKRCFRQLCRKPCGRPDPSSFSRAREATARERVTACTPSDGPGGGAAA

[16] = target: Mu-type opioid receptor (Homo sapiens, UniProt P35372); assay: Counterscreen for agonists of heterodimerization of the mu 1 (OPRM1) and delta 1 (OPRD1) opioid receptors: Luminescence-based cell-based high throughput dose response assay to identify agonists of OPRM1 homodimerization.; format: functional;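 further: U2OS cells expressing OPRM1 and beta-arrestin as split beta-galactosidase partners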
Mu-type opioid receptor, sequence (P35372 whole entry): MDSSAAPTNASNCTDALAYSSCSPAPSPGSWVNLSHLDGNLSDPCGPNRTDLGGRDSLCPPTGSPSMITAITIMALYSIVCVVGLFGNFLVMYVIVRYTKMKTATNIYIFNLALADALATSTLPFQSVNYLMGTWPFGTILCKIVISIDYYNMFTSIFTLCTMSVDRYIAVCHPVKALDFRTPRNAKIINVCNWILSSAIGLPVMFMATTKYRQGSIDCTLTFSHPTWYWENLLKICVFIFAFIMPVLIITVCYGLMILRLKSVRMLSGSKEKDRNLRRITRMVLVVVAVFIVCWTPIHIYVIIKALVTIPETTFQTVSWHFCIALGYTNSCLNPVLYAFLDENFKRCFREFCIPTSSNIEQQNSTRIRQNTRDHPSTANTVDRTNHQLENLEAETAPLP

[17] = target: 5-hydroxytryptamine receptor 5A (Homo sapiens, UniProt P47898); assay: Counterscreen for agonists of OPRM1-OPRD1 heterodimerization: luminescence-based cell-based high throughput dose response assay to identify agonists of 5-hydroxytryptamine (serotonin) 5A receptor (HTR5A). [Related pubchem assays (depositor defined):AID504326, AID504355, AID504692, AID504904, AID504905]; format: functional
5-hydroxytryptamine receptor 5A, sequence (P47898 whole entry): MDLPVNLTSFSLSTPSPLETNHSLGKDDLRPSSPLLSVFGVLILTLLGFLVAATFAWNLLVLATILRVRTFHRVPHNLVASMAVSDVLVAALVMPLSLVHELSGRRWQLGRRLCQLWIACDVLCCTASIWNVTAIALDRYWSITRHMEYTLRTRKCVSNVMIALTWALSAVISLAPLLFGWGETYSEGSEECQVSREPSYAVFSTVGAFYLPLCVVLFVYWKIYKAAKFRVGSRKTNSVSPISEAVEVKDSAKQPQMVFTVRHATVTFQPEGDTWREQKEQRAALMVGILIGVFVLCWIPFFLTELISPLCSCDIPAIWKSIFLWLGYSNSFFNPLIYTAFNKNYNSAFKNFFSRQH

[18] = target: T4, DNA repair protein RAD52 homolog (Homo sapiens, UniProt P43351); format: functional, biochemical
T4 sequence (P43351 whole entry): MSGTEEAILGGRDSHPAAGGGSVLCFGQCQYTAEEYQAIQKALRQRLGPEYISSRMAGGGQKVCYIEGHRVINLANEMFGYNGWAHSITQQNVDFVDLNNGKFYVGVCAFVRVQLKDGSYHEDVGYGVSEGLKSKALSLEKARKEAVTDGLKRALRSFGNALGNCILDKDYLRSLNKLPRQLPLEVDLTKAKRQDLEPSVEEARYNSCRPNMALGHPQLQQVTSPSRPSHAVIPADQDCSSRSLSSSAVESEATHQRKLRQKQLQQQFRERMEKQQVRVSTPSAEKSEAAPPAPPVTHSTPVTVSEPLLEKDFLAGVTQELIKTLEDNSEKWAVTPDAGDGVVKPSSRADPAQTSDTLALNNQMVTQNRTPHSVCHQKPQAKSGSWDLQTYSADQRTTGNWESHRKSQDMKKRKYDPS

[19] = test system: Escherichia coli; assay: microbe, parasite or virus in culture
[20] = NIH-3T3 fibroblast cytotoxicity, dose response, cytotoxicity control, cell-based, fluorescence, Alamar Blue, secondary assay (AID 2327); format: functional;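 further: NIH-3T3 mouse fibroblasts cultured with fluconazole at 8 µg/mL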
[21] = target: Galanin receptor type 2 (Homo sapiens, UniProt O43603); assay: Dose Response cell-based high-throughput screening assay to identify antagonists of galanin receptor 2 (GALR2). [Related pubchem assays: 828, 866 ]; format: functional
Galanin receptor type 2, sequence (O43603 whole entry): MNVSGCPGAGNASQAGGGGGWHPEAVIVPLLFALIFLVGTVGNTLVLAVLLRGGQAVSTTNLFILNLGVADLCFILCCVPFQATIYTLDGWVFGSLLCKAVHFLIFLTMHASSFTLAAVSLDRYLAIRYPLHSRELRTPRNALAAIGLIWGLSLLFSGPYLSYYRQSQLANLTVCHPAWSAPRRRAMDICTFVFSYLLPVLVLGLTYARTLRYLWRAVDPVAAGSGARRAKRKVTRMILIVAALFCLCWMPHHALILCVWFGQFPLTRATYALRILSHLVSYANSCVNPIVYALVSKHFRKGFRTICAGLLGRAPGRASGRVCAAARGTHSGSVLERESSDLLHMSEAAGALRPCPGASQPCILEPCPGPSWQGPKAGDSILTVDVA

[22] = fluconazole-exposed Candida albicans growth modulators – fluorescence, retest, confirmation (AID 2467); format: functional, cell-based
[23] = THP-1 cell cytotoxicity, dose response, cytotoxicity control for non-replicating M. tuberculosis project (AID 489025); format: functional
[24] = target: Beta-galactosidase (Escherichia coli, UniProt Q8VNN2); assay: detection-enzyme interference by beta-gal modulators – biochemical, E. coli enzyme, set 3, artefact control for CCR6 antagonist project, dose response (AID 504712); format: functional
Beta-galactosidase, sequence (Q8VNN2 whole entry): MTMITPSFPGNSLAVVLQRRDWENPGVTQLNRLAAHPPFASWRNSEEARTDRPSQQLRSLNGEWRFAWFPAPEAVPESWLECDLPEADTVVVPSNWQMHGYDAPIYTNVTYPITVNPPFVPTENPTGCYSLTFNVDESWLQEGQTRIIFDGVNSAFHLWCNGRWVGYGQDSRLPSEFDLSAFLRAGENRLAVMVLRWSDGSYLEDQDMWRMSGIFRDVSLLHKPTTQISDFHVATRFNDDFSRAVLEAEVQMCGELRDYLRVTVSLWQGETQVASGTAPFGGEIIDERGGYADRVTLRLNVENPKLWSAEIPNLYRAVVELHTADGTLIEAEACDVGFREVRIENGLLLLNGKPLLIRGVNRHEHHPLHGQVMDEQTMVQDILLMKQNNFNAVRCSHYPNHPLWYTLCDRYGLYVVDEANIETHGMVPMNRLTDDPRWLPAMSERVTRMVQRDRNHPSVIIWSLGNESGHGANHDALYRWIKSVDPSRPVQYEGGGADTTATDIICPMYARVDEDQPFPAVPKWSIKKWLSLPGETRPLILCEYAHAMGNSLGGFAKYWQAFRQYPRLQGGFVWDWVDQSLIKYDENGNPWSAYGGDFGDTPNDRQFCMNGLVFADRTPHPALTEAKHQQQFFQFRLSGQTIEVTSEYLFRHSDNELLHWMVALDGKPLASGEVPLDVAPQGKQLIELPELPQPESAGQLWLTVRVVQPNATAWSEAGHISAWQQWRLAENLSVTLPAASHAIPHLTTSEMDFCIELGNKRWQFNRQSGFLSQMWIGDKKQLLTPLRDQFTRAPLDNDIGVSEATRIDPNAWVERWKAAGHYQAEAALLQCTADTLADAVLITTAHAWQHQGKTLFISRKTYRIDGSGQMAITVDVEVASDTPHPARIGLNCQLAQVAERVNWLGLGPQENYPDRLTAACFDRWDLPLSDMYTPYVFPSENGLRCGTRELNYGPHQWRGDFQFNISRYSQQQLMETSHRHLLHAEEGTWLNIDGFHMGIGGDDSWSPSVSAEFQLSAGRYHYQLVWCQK

[25] = target: T5, Microphthalmia-associated transcription factor (Homo sapiens, UniProt O75030); assay: reducers of TRPM1 reporter luminescence, concentration series – cell-based, SK-MEL-5, cherry-picked, set 3, MITF inhibitor project, dose response (AID 493073); format: functional;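 further: SK-MEL-5 melanoma cells with luciferase driven by the MITF target TRPM1 promoter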
T5 sequence (O75030 whole entry): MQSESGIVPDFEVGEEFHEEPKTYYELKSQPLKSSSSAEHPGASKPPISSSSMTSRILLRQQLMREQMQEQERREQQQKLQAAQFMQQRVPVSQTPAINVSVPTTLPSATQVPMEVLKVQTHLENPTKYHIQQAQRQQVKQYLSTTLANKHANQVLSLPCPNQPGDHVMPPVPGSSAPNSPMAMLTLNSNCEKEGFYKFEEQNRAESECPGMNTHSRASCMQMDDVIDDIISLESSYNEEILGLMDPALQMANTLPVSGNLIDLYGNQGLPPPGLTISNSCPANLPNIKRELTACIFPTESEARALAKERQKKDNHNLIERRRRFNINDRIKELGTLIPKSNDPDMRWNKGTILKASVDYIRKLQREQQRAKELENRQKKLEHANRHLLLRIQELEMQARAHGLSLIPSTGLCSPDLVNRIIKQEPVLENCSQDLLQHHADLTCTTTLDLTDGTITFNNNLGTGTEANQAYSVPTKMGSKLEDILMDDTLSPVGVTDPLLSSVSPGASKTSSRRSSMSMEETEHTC

[26] = cells; format: functional
[27] = target: Heat shock protein HSP 90-alpha (Homo sapiens, UniProt P07900); format: functional, organism-based
[28] = test system: A-375; assay: MITF: Counter assay: A375 proliferation Measured in Cell-Based System Using Plate Reader - 2084-03_Inhibitor_Dose_DryPowder_Activity. [Related pubchem assays (depositor defined):AID488944]; format: functional; settings: Homo sapiens
[29] = test system: A-375; assay: proliferation inhibition in MITF-low A375 cells – cell-based, cherry-pick samples, set 2, counter-screen for MITF modulator project, dose response (AID 540335); format: functional; settings: Homo sapiens

Hexokinase-1, sequence (P19367 whole entry): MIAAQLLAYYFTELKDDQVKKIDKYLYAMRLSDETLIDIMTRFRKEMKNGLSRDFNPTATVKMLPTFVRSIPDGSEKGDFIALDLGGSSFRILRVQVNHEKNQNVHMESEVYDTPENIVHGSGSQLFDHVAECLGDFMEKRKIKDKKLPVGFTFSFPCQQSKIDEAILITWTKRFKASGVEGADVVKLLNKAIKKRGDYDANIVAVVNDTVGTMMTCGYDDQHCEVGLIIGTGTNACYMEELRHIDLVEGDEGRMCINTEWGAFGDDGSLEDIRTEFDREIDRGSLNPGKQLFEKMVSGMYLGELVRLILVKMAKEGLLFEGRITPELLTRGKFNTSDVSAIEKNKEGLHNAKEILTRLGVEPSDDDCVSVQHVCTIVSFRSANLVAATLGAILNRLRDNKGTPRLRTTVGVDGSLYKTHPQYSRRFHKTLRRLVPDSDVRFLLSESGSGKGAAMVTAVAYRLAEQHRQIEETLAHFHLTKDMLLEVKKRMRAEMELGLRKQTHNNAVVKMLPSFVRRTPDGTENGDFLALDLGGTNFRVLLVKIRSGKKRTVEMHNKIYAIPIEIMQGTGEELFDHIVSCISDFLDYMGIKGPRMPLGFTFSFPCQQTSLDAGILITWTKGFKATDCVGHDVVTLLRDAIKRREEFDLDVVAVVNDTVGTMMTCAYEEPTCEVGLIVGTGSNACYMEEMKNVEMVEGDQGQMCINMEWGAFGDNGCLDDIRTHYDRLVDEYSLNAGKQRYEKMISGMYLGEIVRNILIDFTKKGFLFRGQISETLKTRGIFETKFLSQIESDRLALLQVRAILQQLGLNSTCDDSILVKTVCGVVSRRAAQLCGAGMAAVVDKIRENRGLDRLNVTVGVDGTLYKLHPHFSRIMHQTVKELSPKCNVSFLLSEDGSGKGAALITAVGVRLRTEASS

Compound: Cc1ccccc1N1C(=O)c2ccccc2C1Nc1ccccc1 (centres undefined)
- IC50 [1]: > 80 µM (inactive)
- IC50 [2]: > 80 µM (inactive)

Compound: CCOc1cccc(C2C(C(=O)c3ccc(C)o3)=C(O)C(=O)N2Cc2ccccc2)c1 (centres undefined)
- IC50 [3]: 4.29 µM (active)
- CC50 [4]: > 100 µM (inactive)

Compound: O=C(Nc1ccc(O)cc1)c1cc2ccccc2c(=O)s1
- AC50 [5]: > 350 µM (inactive)
- IC50 [6]: 23.3 µM (active)

Compound: COc1ccc(CCNc2ncnc3sccc23)cc1OC
- IC50 [7]: > 80 µM (inactive)
- IC50 [8]: > 80 µM (inactive)
- AC50 [9]: 0.71 µM (active)
- AC50 [10]: < 0.26 µM (active)
- AC50 [11]: 1.5 µM (active)
- IC50 [12]: 0.371 µM (active)
- EC50 [13]: > 29.9 µM (inactive)
- IC50 [14]: 1.97 µM (active)

Compound: CN(C)CCCN(C(=O)c1ccc(Br)s1)c1nc2cc3c(cc2s1)OCCO3
- EC50 [15]: > 92.5 µM (inactive)
- EC50 [16]: > 92.5 µM (inactive)
- EC50 [17]: > 92.5 µM (inactive)
- AC50 [18]: 21.1 µM (active)

Compound: O=[N+]([O-])c1cccc(COc2cccc(CN3CCCCC3)c2)c1
- AC50 [19]: 21.2 µM (active)

Compound: CCOC(=O)c1cc([N+](=O)[O-])c([N+](=O)[O-])cc1NC(C)=O
- EC50 [20]: 4.65 µM (inconclusive)
- IC50 [21]: 10.3 µM (not active)
- EC50 [22]: 2.01 µM (active)
- CC50 [23]: 13.1 µM (active)
- IC50 [24]: > 66.6 µM (inactive)
- AC50 [25]: 24.2 µM (active)
- IC50 [26]: 9.64 µM (active)
- AC50 [27]: 2.59 µM (active)
- AC50 [28]: > 35 µM (active)
- AC50 [29]: > 35 µM (active)
